What is called Ki is a dissociation constant, usually derived from enzyme kinetics or from competition with a known ligand. A high value points to weaker binding. One may read the logD as the decadic logarithm of the distribution of all forms, ionised or not, between an organic phase and buffer at a given pH. A lower logD goes with a more hydrophilic compound. By pKa is commonly meant the negative logarithm of the acid dissociation constant. Higher therefore signals a group that holds its proton tightly. A word on the Papp: it is a coefficient for how fast a substance crosses the barrier. The low end stands for slow passage, the high end for fast passage.

The test system of data set [1] is Oryctolagus cuniculus. Kind of data set: Compound was evaluated for the intraocular pressure (IOP) in normal rabbits following topical dosing after 180 min. The class given is functional, Eye.
Data set [2] has as its system Oryctolagus cuniculus. Kind of data set: Compound was evaluated for the intraocular pressure (IOP) in normal rabbits following topical dosing after 140 min. The class given is functional, Eye.
Data set [3] relates to Oryctolagus cuniculus. The experiment in a line: Compound was evaluated for the intraocular pressure (IOP) in normal rabbits following topical dosing after 40 min. It is filed as functional, Eye.
In data set [4] the test system is Oryctolagus cuniculus. The experiment in a line: Compound was evaluated for the intraocular pressure (IOP) in normal rabbits following topical dosing after 120 min. The class given is functional, Eye.
In data set [5] the test system is Oryctolagus cuniculus. The experiment in a line: Compound was evaluated for the intraocular pressure (IOP) in normal rabbits following topical dosing after 100 min. It is filed as functional, Eye.
In data set [6] the test system is Oryctolagus cuniculus. The experiment in a line: Compound was evaluated for the intraocular pressure (IOP) in normal rabbits following topical dosing after 160 min. The class given is functional, Eye.
The test system of data set [7] is Oryctolagus cuniculus. Kind of data set: Compound was evaluated for the intraocular pressure (IOP) in normal rabbits following topical dosing after 20 min. The class given is functional, Eye.
The subject of data set [8] is Oryctolagus cuniculus. Kind of data set: Compound was evaluated for the intraocular pressure (IOP) in normal rabbits following topical dosing after 80 min. It is filed as functional, Eye.
In data set [9] the test system is Oryctolagus cuniculus. The experiment in a line: Compound was evaluated for the intraocular pressure (IOP) in normal rabbits following topical dosing after 60 min. It is filed as functional, Eye.
For data set [10], the target named is Carbonic anhydrase.
A short description of data set [11]: physchem. The note with it: octanol/pH 7.2 phosphate buffer.
Description: Compound was evaluated for Octanol/pH 7.2 phosphate buffer distribution coefficient
For data set [12] the following is noted: buffer, pH 7.2.
Description: Solubility, pH 7.2 phosphate buffer at 32 degree C
The nature of data set [13]: physchem.
Description: Compound was evaluated for pKa
The target of data set [14] is Carbonic anhydrase. Kind of data set: Compound was evaluated for the inhibition of Carbonic anhydrase (Competitive). It is filed as protein assay.
The subject of data set [15] is Oryctolagus cuniculus. Kind of data set: Compound was evaluated for the intraocular pressure (IOP) in normal rabbits following topical dosing after 110 min. It is filed as functional, Eye.
Data set [16] concerns Oryctolagus cuniculus. The experiment in a line: Compound was evaluated for the intraocular pressure (IOP) in normal rabbits following topical dosing after 70 min. It is filed as functional, Eye.
The test system of data set [17] is Oryctolagus cuniculus. Kind of data set: Compound was evaluated for the intraocular pressure (IOP) in normal rabbits following topical dosing after 90 min. The class given is functional, Eye.
Data set [18] relates to Oryctolagus cuniculus. Kind of data set: Compound was evaluated for the intraocular pressure (IOP) in normal rabbits following topical dosing after 10 min. The class given is functional, Eye.
Data set [19] concerns Oryctolagus cuniculus. Kind of data set: Compound was evaluated for the intraocular pressure (IOP) in normal rabbits following topical dosing after 50 min. The class given is functional, Eye.
Data set [20] relates to Oryctolagus cuniculus. The experiment in a line: Compound was evaluated for the intraocular pressure (IOP) in normal rabbits following topical dosing after 30 min. It is filed as functional, Eye.

As for `CN(O)S(=O)(=O)c1ccc(Cl)cc1`, the IOP in the data set with Oryctolagus cuniculus [1] is on record as -0.25 mmHg; in the data set on Oryctolagus cuniculus [2], -0.33 mmHg; with Oryctolagus cuniculus [3], 1 mmHg; in the data set on Oryctolagus cuniculus [4] it was 0.33 mmHg; in the data set on Oryctolagus cuniculus [5], 0.67 mmHg; in the data set on Oryctolagus cuniculus [6] it was -0.25 mmHg. For the same molecule, the IOP is 0.17 mmHg in the data set on Oryctolagus cuniculus [7], 0.17 mmHg in the data set on Oryctolagus cuniculus [8] and -1.25 mmHg in the data set on Oryctolagus cuniculus [9]. The molecule also came in with a Ki on Carbonic anhydrase [10] of 107 nM.

On to `CNS(=O)(=O)c1ccc(Cl)cc1`, for which the apparent permeability (Papp) was determined as 65.1 ×10⁻⁶ cm/s. This molecule returned a logD in the data set “physchem [11]” of 1.92. The molecule also returned a Solubility in [12] of 0.0208 M l-1. Besides, the pKa in the data set “physchem [13]” came to 11. This molecule showed a Ki on Carbonic anhydrase [10] of 584 nM.

`CNS(=O)(=O)c1ccc([N+](=O)[O-])cc1` returned a Ki on Carbonic anhydrase [10] of 146 nM.

The molecule `CNS(=O)(=O)c1nnc(NC(C)=O)s1` came in with a Papp of 2.26 ×10⁻⁶ cm/s. In addition, on Carbonic anhydrase [14], the Ki stood at 258 nM. For the same molecule, the logD in the data set “physchem [11]” was 0.32. Besides, in data set [12], the Solubility came out at 0.00144 M l-1. In addition, the pKa in “physchem [13]” was found to be 7.52.

Regarding `NS(=O)(=O)c1ccc(Cl)cc1` [P-CHLOROBENZENESULFONAMIDE], the apparent permeability (Papp) was determined as 54.7 ×10⁻⁶ cm/s. This molecule also displayed a log distribution coefficient (logD) in “physchem [11]” of 1.24. Further, the Solubility in data set [12] stood at 0.0223 M l-1. Besides, the pKa in the data set “physchem [13]” was found to be 9.95.

On to `CN(O)S(=O)(=O)c1ccc([N+](=O)[O-])cc1`, for which the IOP with Oryctolagus cuniculus [3] is on record as -1.67 mmHg; in the data set with Oryctolagus cuniculus [15], -0.33 mmHg; in the data set with Oryctolagus cuniculus [4] it was -1 mmHg; in the data set on Oryctolagus cuniculus [5], -0.5 mmHg; with Oryctolagus cuniculus [16], -2 mmHg; in the data set on Oryctolagus cuniculus [17] it was 0.2 mmHg. The IOP with Oryctolagus cuniculus [18] is 0.33 mmHg; with Oryctolagus cuniculus [19], -1.83 mmHg; in the data set on Oryctolagus cuniculus [7], -0.33 mmHg; with Oryctolagus cuniculus [8], -1.67 mmHg; with Oryctolagus cuniculus [20], -0.67 mmHg; in the data set on Oryctolagus cuniculus [9], -1.67 mmHg. This molecule showed a Ki on Carbonic anhydrase [10] of 44 nM.

The record behind these values is ChEMBL document CHEMBL1123344, “N-Substituted sulfonamide carbonic anhydrase inhibitors with topical effects on intraocular pressure” (J Med Chem, 1986).
